Results on 13 molecules are retold here after patent US12371454B2, “Cyclic peptide compound having Kras inhibitory action” (priority 2019, dated 2025).

SMILES strings stand for the structures. Starred links: 1 amine or outer side, 2 acyl side, 3 side chain; linkers in the order of their positions; H or OH if unused. Positions of bridges follow the written chain, without caps; N, C: chain ends. Non-standard residues stand in square brackets, D forms with d. Residues, ends and D or L forms follow the SMILES beside them. *: point of attachment. hPhe(3,5-F2-4-CF3) = N[C@@H](CCc1cc(F)c(C(F)(F)F)c(F)c1)C(=O)O; hPhe(3-Cl-4-CF3) = N[C@@H](CCc1ccc(C(F)(F)F)c(Cl)c1)C(=O)O; NMeDab(N,N-(CH2CF2CH2)) = CN[C@@H](CCN1CC(F)(F)C1)C(=O)O; NMePhe(4-CF3) = CN[C@@H](Cc1ccc(C(F)(F)F)cc1)C(=O)O; hPhe(4-CF3) = N[C@@H](CCc1ccc(C(F)(F)F)cc1)C(=O)O; NMePhe(4-Cl) = CN[C@@H](Cc1ccc(Cl)cc1)C(=O)O; NMePhe(4-Me) = CN[C@@H](Cc1ccc(C)cc1)C(=O)O; X11 = CN([C@@H](CCc1cccnc1)C(=O)[*:2])[*:1]; X59 = O=C([C@H](Cc1cc(I)ccc1Cl)N[*:1])[*:2]; NMeNle(6-CHF2) = CN[C@@H](CCCCC(F)F)C(=O)O; NMePhe(4-F) = CN[C@@H](Cc1ccc(F)cc1)C(=O)O; NMedβ3hAla = C[C@H](CC(=O)[*:2])N(C)[*:1]; NMeGly(cPent) = CN[C@H](C(=O)O)C1CCCC1; Phe(3-I) = N[C@@H](Cc1cccc(I)c1)C(=O)O; X10 = CC(C)=CC[C@H](N[*:1])C(=O)[*:2]; NMeCha = CN[C@@H](CC1CCCCC1)C(=O)O; NMeChg = CN[C@H](C(=O)O)C1CCCCC1; NMeI = CC[C@H](C)[C@H](NC)C(=O)O; NMeD = CN[C@@H](CC(=O)O)C(=O)O; CH2CONHtBu = CC(C)(C)NC(=O)C*; NMeL = CN[C@@H](CC(C)C)C(=O)O; Oxazolidin(3-yl) = C1CN(*)CO1; NMeV = CN[C@H](C(=O)O)C(C)C; d(β3hA) = C[C@@H](N)CC(=O)O; NMeS = CN[C@@H](CO)C(=O)O; NMeA = CN[C@@H](C)C(=O)O; NMeAib = CNC(C)(C)C(=O)O; Nle = CCCC[C@H](N)C(=O)O; Piperidide = C1CCN(*)CC1; Pra = C#CC[C@H](N)C(=O)O; Pyrrolidide = C1CCN(*)C1; dNMeA = CN[C@H](C)C(=O)O; Ac5c = NC1(C(=O)O)CCCC1; Aze = O=C(O)[C@@H]1CCN1; Aib = CC(C)(N)C(=O)O; Isopentyl = CC(C)CC*; Sar = CNCC(=O)O

In general, IC50 refers to the concentration needed to halve the response being measured.

The target of this experiment is T1, Kras and SOS1 (biotin-tagged human Kras loaded with GDP, His-tagged human SOS1) (Homo sapiens, UniProt P01116, G12D).
T1 construct: made in house; host or cells: E. coli (stated for Kras only)
T1 sequence (P01116 1-188 isoform P01116-2 G12D): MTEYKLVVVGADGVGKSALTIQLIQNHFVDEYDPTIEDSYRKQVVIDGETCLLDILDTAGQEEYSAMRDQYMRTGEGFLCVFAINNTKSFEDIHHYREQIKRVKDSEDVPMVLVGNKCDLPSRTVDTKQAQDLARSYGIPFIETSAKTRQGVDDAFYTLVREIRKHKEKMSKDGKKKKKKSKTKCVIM
Kind of experiment: Protein-protein interaction inhibition between Kras and SOS1 (KrasGl2D-SOS PPI) using AlphaScreen. Format: binding. The note with it: AlphaScreen; biotin-tagged human Kras loaded with GDP, His-tagged human SOS1; read-out: KRAS G12D-SOS PPI IC50. Put shortly:
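AlphaScreen format: Ni donor beads capture His-SOS1, streptavidin acceptor beads capture biotinylated Kras (E. coli-expressed, GDP-loaded post-purification). Excite 680 nm, read 520-620 nm.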
Regarding `C#CC[C@@H]1NC(=O)[C@H](Cc2cccc(I)c2)NC(=O)CN(C)C(=O)[C@H](Cc2ccc(C(F)(F)F)cc2)N(C)C(=O)[C@@H]2CCN2C(=O)CN(C)C(=O)[C@H]([C@@H](C)CC)NC(=O)[C@H](CC(C)C)N(C)C(=O)C[C@@H](C(=O)N2CCCCC2)N(C)C(=O)[C@H](CC(C)C)NC(=O)C(C)(C)N(C)C1=O` [Compound 1425] ([NMeL]I[Sar][Aze][NMePhe(4-CF3)][Sar][Phe(3-I)][Pra][NMeAib]L[NMeD]-Piperidide; lactam N-11), the IC50 was 19 nM. The figure for `CC[C@H](C)[C@@H]1NC(=O)[C@H](C)N(C)C(=O)C[C@@H](C(=O)N(C)C)N(C)C(=O)[C@H]([C@@H](C)CC)N(C)C(=O)C2(CCCC2)NC(=O)[C@H](Cc2ccc(F)cc2)N(C)C(=O)[C@H](CCc2cc(F)c(C(F)(F)F)c(F)c2)NC(=O)CN(C)C(=O)[C@H](Cc2ccc(C)cc2)N(C)C(=O)[C@@H]2CCN2C(=O)[C@H](C)N(C)C1=O` [Compound 1914] ([NMeA]I[NMeA][Aze][NMePhe(4-Me)][Sar][hPhe(3,5-F2-4-CF3)][NMePhe(4-F)][Ac5c][NMeI][NMeD]-NMe2; lactam N-11) is 7.7 nM; for `CC[C@H](C)[C@@H]1NC(=O)[C@H](CC(C)C)N(C)C(=O)C[C@@H](C)N(C)C(=O)[C@H](C2CCCCC2)N(C)C(=O)C2(CCCC2)NC(=O)[C@@H]2CCCN2C(=O)[C@H](CCc2ccc(C(F)(F)F)c(Cl)c2)NC(=O)CN(C)C(=O)[C@H](CC2CCCCC2)N(C)C(=O)[C@@H]2CCN2C(=O)[C@H](C)N(C)C1=O` [Compound 1813] (cyclo([Ac5c][NMeChg][NMedβ3hAla][NMeL]I[NMeA][Aze][NMeCha][Sar][hPhe(3-Cl-4-CF3)]P)) it is 36 nM. The figure for `CC[C@H](C)[C@@H]1NC(=O)[C@H](C)N(C)C(=O)C[C@@H](C)NC(=O)[C@H](C(C)C)N(C)C(=O)C2(CCCC2)NC(=O)[C@@H]2CCCN2C(=O)[C@H](CCc2ccc(C(F)(F)F)c(Cl)c2)NC(=O)[C@@H](C)N(C)C(=O)[C@H](CC2CCCCC2)N(C)C(=O)[C@@H]2CCN2C(=O)[C@H](CC2CCCCC2)N(C)C1=O` [Compound 2015] (cyclo([Ac5c][NMeV][d(β3hA)][NMeA]I[NMeCha][Aze][NMeCha][dNMeA][hPhe(3-Cl-4-CF3)]P)) is 260 nM. The figure for `CC[C@H](C)[C@@H]1NC(=O)[C@H](CC(C)C)N(C)C(=O)C[C@@H](C)NC(=O)[C@H](C2CCCC2)N(C)C(=O)C2(CCCC2)NC(=O)[C@@H]2CCCN2C(=O)[C@H](CCc2ccc(C(F)(F)F)c(Cl)c2)NC(=O)[C@@H](C)N(C)C(=O)[C@H](CC2CCCCC2)N(C)C(=O)CN(C)C(=O)CN(C)C1=O` [Compound 1530] (cyclo([Ac5c][NMeGly(cPent)][d(β3hA)][NMeL]I[Sar][Sar][NMeCha][dNMeA][hPhe(3-Cl-4-CF3)]P)) is 130 nM.

As to `CC[C@H](C)[C@@H]1NC(=O)[C@H](C)N(C)C(=O)C[C@@H](C(=O)N2CCCC2)NC(=O)[C@H](CC(C)C)N(C)C(=O)[C@H](CCCCC(F)F)N(C)C(=O)[C@H](CC(C)C)NC(=O)[C@H](CCc2ccc(C(F)(F)F)cc2)NC(=O)CN(C)C(=O)[C@H](Cc2ccc(Cl)cc2)N(C)C(=O)CN(C)C(=O)CN(C)C1=O` [Compound 779] ([NMeA]I[Sar][Sar][NMePhe(4-Cl)][Sar][hPhe(4-CF3)]L[NMeNle(6-CHF2)][NMeL]D-Pyrrolidide; lactam N-11), the IC50 is 160 nM. On to `CC[C@H](C)[C@@H]1NC(=O)[C@H](C)N(C)C(=O)C[C@@H](C(=O)N2CCCCC2)N(C)C(=O)[C@H](C(C)C)N(C)C(=O)[C@H](CC(C)C)NC(=O)[C@H](CCN2CC(F)(F)C2)N(C)C(=O)[C@H](CCc2ccc(C(F)(F)F)c(Cl)c2)NC(=O)CN(C)C(=O)[C@H](CC2CCCCC2)N(C)C(=O)CN(C)C(=O)CN(C)C1=O` [Compound 331] ([NMeA]I[Sar][Sar][NMeCha][Sar][hPhe(3-Cl-4-CF3)][NMeDab(N,N-(CH2CF2CH2))]L[NMeV][NMeD]-Piperidide; lactam N-11), for which the IC50 worked out at 30 nM.

With `CC[C@H](C)[C@@H]1NC(=O)[C@H](CC(C)C)N(C)C(=O)C[C@@H](C(=O)N2CCOC2)NC(=O)[C@H]([C@@H](C)CC)N(C)C(=O)C2(CCCC2)NC(=O)[C@@H]2CCCN2C(=O)[C@H](CCc2ccc(C(F)(F)F)c(Cl)c2)NC(=O)CN(C)C(=O)[C@H](CC2CCCCC2)N(C)C(=O)CN(C)C(=O)CN(C)C1=O` [Compound 1247] ([NMeL]I[Sar][Sar][NMeCha][Sar][hPhe(3-Cl-4-CF3)]P[Ac5c][NMeI]D-{Oxazolidin(3-yl)}; lactam N-11), the IC50 was determined as 4.8 nM.

With `C#CC[C@@H]1NC(=O)[C@H](Cc2cccc(I)c2)NC(=O)CN(C)C(=O)[C@H](Cc2ccc(Cl)cc2)N(C)C(=O)[C@@H]2CCN2C(=O)[C@H](C)N(C)C(=O)[C@H]([C@@H](C)CC)NC(=O)[C@H](CC(C)C)N(C)C(=O)C[C@@H](C(=O)N2CCCCC2)N(C)C(=O)[C@H](CC(C)C)NC(=O)C(C)(C)N(C)C1=O` [Compound 1428] ([NMeL]I[NMeA][Aze][NMePhe(4-Cl)][Sar][Phe(3-I)][Pra][NMeAib]L[NMeD]-Piperidide; lactam N-11), the half-inhibitory concentration (IC50) is 42 nM. Turning to `CCCC[C@@H]1NC(=O)[C@H](Cc2cc(I)ccc2Cl)NC(=O)CN(C)C(=O)[C@H](Cc2ccc(Cl)cc2)N(C)C(=O)CN(C)C(=O)CN(C)C(=O)[C@H]([C@@H](C)CC)NC(=O)[C@H](CC(C)C)N(C)C(=O)C[C@@H](C(=O)N2CCCCC2)N(C)C(=O)[C@H](CC(C)C)NC(=O)C(C)(C)N(C)C1=O` [Compound 1352] ([NMeL]I[Sar][Sar][NMePhe(4-Cl)][Sar][X59][Nle][NMeAib]L[NMeD]-Piperidide; lactam N-11), the IC50 stood at 110 nM. As for `CC[C@H](C)[C@@H]1NC(=O)[C@H](CC(C)C)N(C)C(=O)C[C@@H](C(=O)N(C)C)N(C)C(=O)[C@H]([C@@H](C)CC)N(C)C(=O)C2(CCCC2)NC(=O)[C@H](CCc2cccnc2)N(C)C(=O)[C@H](CCc2ccc(C(F)(F)F)c(Cl)c2)NC(=O)CN(C)C(=O)[C@H](Cc2ccc(C)cc2)N(C)C(=O)[C@@H]2CCN2C(=O)[C@H](C)N(C)C1=O` [Compound 1886] ([NMeL]I[NMeA][Aze][NMePhe(4-Me)][Sar][hPhe(3-Cl-4-CF3)][X11][Ac5c][NMeI][NMeD]-NMe2; lactam N-11), the figure is 0.93 nM; as for `CC[C@H](C)[C@@H]1NC(=O)[C@H](CC(C)C)N(C)C(=O)C[C@@H](C)N(C)C(=O)[C@H](CC(C)C)NC(=O)C(C)(C)N(C)C(=O)[C@H](CC=C(C)C)NC(=O)[C@H](Cc2cccc(I)c2)NC(=O)CN(C)C(=O)[C@H](Cc2ccc(Cl)cc2)N(C)C(=O)[C@@H]2CCN2C(=O)CN(C)C1=O` [Compound 1408] (cyclo([Aze][NMePhe(4-Cl)][Sar][Phe(3-I)][X10][NMeAib]L[NMedβ3hAla][NMeL]I[Sar])), 160 nM. As for `CC[C@H](C)[C@@H]1NC(=O)[C@H](CC(C)C)N(C)C(=O)C[C@@H](C)NC(=O)[C@H](CC(C)C)N(C)C(=O)C(C)(C)NC(=O)[C@H](COCC(=O)NC(C)(C)C)N(C)C(=O)[C@H](CCc2ccc(C(F)(F)F)c(Cl)c2)NC(=O)CN(C)C(=O)[C@H](COCCC(C)C)N(C)C(=O)CN(C)C(=O)CN(C)C1=O` [Compound 1467] (cyclo([Aib][NMeL][d(β3hA)][NMeL]I[Sar][Sar][NMeS](Isopentyl)[Sar][hPhe(3-Cl-4-CF3)][NMeS](CH2CONHtBu))), the figure is 120 nM.
